# Reference: patent publication EP1082099B1, “SURFACTANT FOR USE IN EXTERNAL PREPARATIONS FOR SKIN AND EXTERNAL PREPARATION FOR SKIN CONTAINING THE SAME” (Showa Denko K K, priority 1998, dated 1999)
# Legend:
# [1] = test system: three-dimensional skin model; assay: Skin irritation test: MTT cytotoxicity on three-dimensional cultured skin model; type: cell-based; settings: test substance in PBS pH 7, 1 hour exposure, 16 hours incubation, read from graph
# Procedure: Using a three-dimensional skin model (trade name: Three-dimensional cultured skin model, manufactured by Gunze), skin irritation tests were performed. […] The test substances were adjusted with PBS (Phosphate Buffer Saline, pH 7) so that they were in various concentrations. To the thus-adjusted test substances was exposed the skin model for 1 hour. Thereafter, the test substances were washed and incubated for 16 hours in a medium attached to the above-described three-dimensional skin model. After the incubation, a solution of MTT (3-(4,5-dimethylthiazol-2-yl)-2,5-diphenyltetrazolium bromide) was added and pigments were extracted with isopropanol rendered acidic with hydrochloric acid, followed by measurement of absorbance at a wavelength of 570 nm. […] This value was called B. The MTT solution was added to PBS and extraction was performed similarly. Absorbance of the extract measured at a wavelength of 570 nm was named C. From these values was calculated cytotoxicity. Calculation was made according to the following equation. Cytotoxicity (%) = (1-(A-c)/(B-C)) x 100 [formula]
# Plotting the concentration of a test substance on the axis of abscissa and cytotoxicity on the axis of ordinate, a graph was obtained, from which the concentration of a test compound at 50% cytotoxicity was read.
# [2] = Surface tension test (plate method); type: physicochemical; settings: 0.1 wt% in water, 25°C
# Procedure: The dried medium preparation and purified surfactin sodium salt were each dissolved in water in an amount of 0.1 wt% and their ability of decreasing surface tension was tested. […]
# [3] = Turbidity test of surfactin solutions with alkaline earth metal, judged visually after storage; type: physicochemical; parameters: key: -: Not turbid; ±: Slightly turbid; +: Turbid; settings: 40°C for 7 days
# Procedure: (§1) Samples were prepared by dissolving surfactin sodium salt in a concentration of 0 or 0.2% and calcium chloride dihydrate in a calcium concentration of 0, 10, or 20 ppm in each of solvents described below, and each solution was charged in a screw vial and sealed, which was then left to stand at 40°C for 7 days. After 7 days, the turbidity of each sample was judged visually.
# as §1, with “dissolving 0.2%” for “dissolving”, “salt” for “salt in a concentration of 0 or 0.2%”, “magnesium” for “calcium”
# (§2) Samples were prepared by dissolving 0.2% surfactin sodium salt and calcium chloride dihydrate in a calcium concentration of 0.1, 1, or 10 ppm in the solvent described below and further disodium edetate was added in an amount of 0, 0.0001, 0.001, 0.01, 0.1, 0.2, 1, or 3%, respectively. Then, each solution was charged in a screw vial and sealed, which was then left to stand at 40°C for 7 days. After 7 days, the turbidity of each sample was judged visually. […]
# as §2, with “sodium citrate” for “disodium edetate”
# [4] = as above; type: physicochemical; parameters: key: -: Not turbid; +: Turbid; settings: 40°C for 7 days
# Procedure: as §1
# as §1, with “dissolving 0.2%” for “dissolving”, “salt” for “salt in a concentration of 0 or 0.2%”, “magnesium” for “calcium”
# as §2
# as §2, with “sodium citrate” for “disodium edetate”
substance,measurement,setting,value
surfactin sodium salt,Concentration of surfactant at 50% cytotoxicity,[1],24.4%
same,Surface Tension,[2],27.6 mN/m
same,turbidity,"[3]; 0.2% surfactin sodium salt in Solvent 2 (7% Ethanol, 93% deionized water), magnesium 10 ppm",±
same,turbidity,"[3]; 0.2% surfactin sodium salt in Solvent 2 (7% Ethanol, 93% deionized water), magnesium 20 ppm",±
same,turbidity,"[3]; 0.2% surfactin sodium salt in Solvent 3 (7% Ethanol, 5% glycerin, 5% 1,3-butylene glycol, 83% deionized water), magnesium 10 ppm",±
same,turbidity,"[3]; 0.2% surfactin sodium salt in Solvent 3 (7% Ethanol, 5% glycerin, 5% 1,3-butylene glycol, 83% deionized water), magnesium 20 ppm",±
same,turbidity,"[3]; 0.2% surfactin sodium salt, sodium citrate 0.0001%, calcium 1 ppm, solvent 7% Ethanol, 5% glycerin, 5% 1,3-butylene glycol, 83% deionized water",±
same,turbidity,"[3]; 0.2% surfactin sodium salt, sodium edetate 0.0001%, calcium 1 ppm, solvent 7% Ethanol, 5% glycerin, 5% 1,3-butylene glycol, 83% deionized water",±
same,turbidity,"[4]; 0.2% surfactin sodium salt in Solvent 1 (deionized water), magnesium 0 ppm",-
same,turbidity,"[4]; 0.2% surfactin sodium salt in Solvent 1 (deionized water), magnesium 10 ppm",+
same,turbidity,"[4]; 0.2% surfactin sodium salt in Solvent 1 (deionized water), magnesium 20 ppm",+
same,turbidity,"[4]; 0.2% surfactin sodium salt in Solvent 2 (7% Ethanol, 93% deionized water), magnesium 0 ppm",-
same,turbidity,"[4]; 0.2% surfactin sodium salt in Solvent 3 (7% Ethanol, 5% glycerin, 5% 1,3-butylene glycol, 83% deionized water), magnesium 0 ppm",-
same,turbidity,"[4]; 0.2% surfactin sodium salt, sodium citrate 0%, calcium 0.1 ppm, solvent 7% Ethanol, 5% glycerin, 5% 1,3-butylene glycol, 83% deionized water",-
same,turbidity,"[4]; 0.2% surfactin sodium salt, sodium citrate 0%, calcium 1 ppm, solvent 7% Ethanol, 5% glycerin, 5% 1,3-butylene glycol, 83% deionized water",+
same,turbidity,"[4]; 0.2% surfactin sodium salt, sodium citrate 0%, calcium 10 ppm, solvent 7% Ethanol, 5% glycerin, 5% 1,3-butylene glycol, 83% deionized water",+
same,turbidity,"[4]; 0.2% surfactin sodium salt, sodium citrate 0.0001%, calcium 0.1 ppm, solvent 7% Ethanol, 5% glycerin, 5% 1,3-butylene glycol, 83% deionized water",-
same,turbidity,"[4]; 0.2% surfactin sodium salt, sodium citrate 0.0001%, calcium 10 ppm, solvent 7% Ethanol, 5% glycerin, 5% 1,3-butylene glycol, 83% deionized water",+
same,turbidity,"[4]; 0.2% surfactin sodium salt, sodium citrate 0.001%, calcium 0.1 ppm, solvent 7% Ethanol, 5% glycerin, 5% 1,3-butylene glycol, 83% deionized water",-
same,turbidity,"[4]; 0.2% surfactin sodium salt, sodium citrate 0.001%, calcium 1 ppm, solvent 7% Ethanol, 5% glycerin, 5% 1,3-butylene glycol, 83% deionized water",-
same,turbidity,"[4]; 0.2% surfactin sodium salt, sodium citrate 0.001%, calcium 10 ppm, solvent 7% Ethanol, 5% glycerin, 5% 1,3-butylene glycol, 83% deionized water",+
same,turbidity,"[4]; 0.2% surfactin sodium salt, sodium citrate 0.01%, calcium 0.1 ppm, solvent 7% Ethanol, 5% glycerin, 5% 1,3-butylene glycol, 83% deionized water",-
same,turbidity,"[4]; 0.2% surfactin sodium salt, sodium citrate 0.01%, calcium 1 ppm, solvent 7% Ethanol, 5% glycerin, 5% 1,3-butylene glycol, 83% deionized water",-
same,turbidity,"[4]; 0.2% surfactin sodium salt, sodium citrate 0.01%, calcium 10 ppm, solvent 7% Ethanol, 5% glycerin, 5% 1,3-butylene glycol, 83% deionized water",-
same,turbidity,"[4]; 0.2% surfactin sodium salt, sodium citrate 0.1%, calcium 0.1 ppm, solvent 7% Ethanol, 5% glycerin, 5% 1,3-butylene glycol, 83% deionized water",-
same,turbidity,"[4]; 0.2% surfactin sodium salt, sodium citrate 0.1%, calcium 1 ppm, solvent 7% Ethanol, 5% glycerin, 5% 1,3-butylene glycol, 83% deionized water",-
same,turbidity,"[4]; 0.2% surfactin sodium salt, sodium citrate 0.1%, calcium 10 ppm, solvent 7% Ethanol, 5% glycerin, 5% 1,3-butylene glycol, 83% deionized water",-
same,turbidity,"[4]; 0.2% surfactin sodium salt, sodium citrate 0.2%, calcium 0.1 ppm, solvent 7% Ethanol, 5% glycerin, 5% 1,3-butylene glycol, 83% deionized water",-
same,turbidity,"[4]; 0.2% surfactin sodium salt, sodium citrate 0.2%, calcium 1 ppm, solvent 7% Ethanol, 5% glycerin, 5% 1,3-butylene glycol, 83% deionized water",-
same,turbidity,"[4]; 0.2% surfactin sodium salt, sodium citrate 0.2%, calcium 10 ppm, solvent 7% Ethanol, 5% glycerin, 5% 1,3-butylene glycol, 83% deionized water",-
same,turbidity,"[4]; 0.2% surfactin sodium salt, sodium citrate 1%, calcium 0.1 ppm, solvent 7% Ethanol, 5% glycerin, 5% 1,3-butylene glycol, 83% deionized water",-
same,turbidity,"[4]; 0.2% surfactin sodium salt, sodium citrate 1%, calcium 1 ppm, solvent 7% Ethanol, 5% glycerin, 5% 1,3-butylene glycol, 83% deionized water",-
same,turbidity,"[4]; 0.2% surfactin sodium salt, sodium citrate 1%, calcium 10 ppm, solvent 7% Ethanol, 5% glycerin, 5% 1,3-butylene glycol, 83% deionized water",-
same,turbidity,"[4]; 0.2% surfactin sodium salt, sodium citrate 3%, calcium 0.1 ppm, solvent 7% Ethanol, 5% glycerin, 5% 1,3-butylene glycol, 83% deionized water",-
same,turbidity,"[4]; 0.2% surfactin sodium salt, sodium citrate 3%, calcium 1 ppm, solvent 7% Ethanol, 5% glycerin, 5% 1,3-butylene glycol, 83% deionized water",-
same,turbidity,"[4]; 0.2% surfactin sodium salt, sodium citrate 3%, calcium 10 ppm, solvent 7% Ethanol, 5% glycerin, 5% 1,3-butylene glycol, 83% deionized water",-
same,turbidity,"[4]; 0.2% surfactin sodium salt, sodium edetate 0%, calcium 0.1 ppm, solvent 7% Ethanol, 5% glycerin, 5% 1,3-butylene glycol, 83% deionized water",-
same,turbidity,"[4]; 0.2% surfactin sodium salt, sodium edetate 0%, calcium 1 ppm, solvent 7% Ethanol, 5% glycerin, 5% 1,3-butylene glycol, 83% deionized water",+
same,turbidity,"[4]; 0.2% surfactin sodium salt, sodium edetate 0%, calcium 10 ppm, solvent 7% Ethanol, 5% glycerin, 5% 1,3-butylene glycol, 83% deionized water",+
same,turbidity,"[4]; 0.2% surfactin sodium salt, sodium edetate 0.0001%, calcium 0.1 ppm, solvent 7% Ethanol, 5% glycerin, 5% 1,3-butylene glycol, 83% deionized water",-
same,turbidity,"[4]; 0.2% surfactin sodium salt, sodium edetate 0.0001%, calcium 10 ppm, solvent 7% Ethanol, 5% glycerin, 5% 1,3-butylene glycol, 83% deionized water",+
same,turbidity,"[4]; 0.2% surfactin sodium salt, sodium edetate 0.001%, calcium 0.1 ppm, solvent 7% Ethanol, 5% glycerin, 5% 1,3-butylene glycol, 83% deionized water",-
same,turbidity,"[4]; 0.2% surfactin sodium salt, sodium edetate 0.001%, calcium 1 ppm, solvent 7% Ethanol, 5% glycerin, 5% 1,3-butylene glycol, 83% deionized water",-
same,turbidity,"[4]; 0.2% surfactin sodium salt, sodium edetate 0.001%, calcium 10 ppm, solvent 7% Ethanol, 5% glycerin, 5% 1,3-butylene glycol, 83% deionized water",+
same,turbidity,"[4]; 0.2% surfactin sodium salt, sodium edetate 0.01%, calcium 0.1 ppm, solvent 7% Ethanol, 5% glycerin, 5% 1,3-butylene glycol, 83% deionized water",-
same,turbidity,"[4]; 0.2% surfactin sodium salt, sodium edetate 0.01%, calcium 1 ppm, solvent 7% Ethanol, 5% glycerin, 5% 1,3-butylene glycol, 83% deionized water",-
same,turbidity,"[4]; 0.2% surfactin sodium salt, sodium edetate 0.01%, calcium 10 ppm, solvent 7% Ethanol, 5% glycerin, 5% 1,3-butylene glycol, 83% deionized water",-
same,turbidity,"[4]; 0.2% surfactin sodium salt, sodium edetate 0.1%, calcium 0.1 ppm, solvent 7% Ethanol, 5% glycerin, 5% 1,3-butylene glycol, 83% deionized water",-
same,turbidity,"[4]; 0.2% surfactin sodium salt, sodium edetate 0.1%, calcium 1 ppm, solvent 7% Ethanol, 5% glycerin, 5% 1,3-butylene glycol, 83% deionized water",-
same,turbidity,"[4]; 0.2% surfactin sodium salt, sodium edetate 0.1%, calcium 10 ppm, solvent 7% Ethanol, 5% glycerin, 5% 1,3-butylene glycol, 83% deionized water",-
same,turbidity,"[4]; 0.2% surfactin sodium salt, sodium edetate 0.2%, calcium 0.1 ppm, solvent 7% Ethanol, 5% glycerin, 5% 1,3-butylene glycol, 83% deionized water",-
same,turbidity,"[4]; 0.2% surfactin sodium salt, sodium edetate 0.2%, calcium 1 ppm, solvent 7% Ethanol, 5% glycerin, 5% 1,3-butylene glycol, 83% deionized water",-
same,turbidity,"[4]; 0.2% surfactin sodium salt, sodium edetate 0.2%, calcium 10 ppm, solvent 7% Ethanol, 5% glycerin, 5% 1,3-butylene glycol, 83% deionized water",-
same,turbidity,"[4]; 0.2% surfactin sodium salt, sodium edetate 1%, calcium 0.1 ppm, solvent 7% Ethanol, 5% glycerin, 5% 1,3-butylene glycol, 83% deionized water",-
same,turbidity,"[4]; 0.2% surfactin sodium salt, sodium edetate 1%, calcium 1 ppm, solvent 7% Ethanol, 5% glycerin, 5% 1,3-butylene glycol, 83% deionized water",-
same,turbidity,"[4]; 0.2% surfactin sodium salt, sodium edetate 1%, calcium 10 ppm, solvent 7% Ethanol, 5% glycerin, 5% 1,3-butylene glycol, 83% deionized water",-
same,turbidity,"[4]; 0.2% surfactin sodium salt, sodium edetate 3%, calcium 0.1 ppm, solvent 7% Ethanol, 5% glycerin, 5% 1,3-butylene glycol, 83% deionized water",-
same,turbidity,"[4]; 0.2% surfactin sodium salt, sodium edetate 3%, calcium 1 ppm, solvent 7% Ethanol, 5% glycerin, 5% 1,3-butylene glycol, 83% deionized water",-
same,turbidity,"[4]; 0.2% surfactin sodium salt, sodium edetate 3%, calcium 10 ppm, solvent 7% Ethanol, 5% glycerin, 5% 1,3-butylene glycol, 83% deionized water",-
same,turbidity,"[4]; Surfactin 0.2% in Solvent 1 (deionized water), calcium 0 ppm",-
same,turbidity,"[4]; Surfactin 0.2% in Solvent 1 (deionized water), calcium 10 ppm",+
same,turbidity,"[4]; Surfactin 0.2% in Solvent 1 (deionized water), calcium 20 ppm",+
same,turbidity,"[4]; Surfactin 0.2% in Solvent 2 (7% Ethanol, 93% deionized water), calcium 0 ppm",-
same,turbidity,"[4]; Surfactin 0.2% in Solvent 2 (7% Ethanol, 93% deionized water), calcium 10 ppm",+
same,turbidity,"[4]; Surfactin 0.2% in Solvent 2 (7% Ethanol, 93% deionized water), calcium 20 ppm",+
same,turbidity,"[4]; Surfactin 0.2% in Solvent 3 (7% Ethanol, 5% glycerin, 5% 1,3-butylene glycol, 83% deionized water), calcium 0 ppm",-
same,turbidity,"[4]; Surfactin 0.2% in Solvent 3 (7% Ethanol, 5% glycerin, 5% 1,3-butylene glycol, 83% deionized water), calcium 10 ppm",+
same,turbidity,"[4]; Surfactin 0.2% in Solvent 3 (7% Ethanol, 5% glycerin, 5% 1,3-butylene glycol, 83% deionized water), calcium 20 ppm",+
